Several values for one entry are separate records, joined by “and”; a condition that tells them apart may be missing. Equal values may be shown once.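 A five-concentration, 48-hour dose response in 96-well plates underlies each endpoint, interpolated linearly between surrounding concentrations. GI50 = concentration required for 50% inhibition of growth. TGI denotes the concentration required for complete inhibition of growth.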
How the values were obtained:
Assay in all cases: NCI anticancer screen, dose series, 48 h
A498 renal = tested on: A498 renal
A549 NSCLC = tested on: A549 NSCLC
HCC-2998 colon = tested on: HCC-2998 colon
HL-60(TB) leukemia = tested on: HL-60(TB) leukemia
OVCAR-3 ovarian = tested on: OVCAR-3 ovarian
RXF 393 renal = tested on: RXF 393 renal
SF-268 CNS = tested on: SF-268 CNS
SNB-75 CNS = tested on: SNB-75 CNS
RPMI-8226 leukemia = tested on: RPMI-8226 leukemia
NCI/ADR-RES ovarian = tested on: NCI/ADR-RES ovarian

SMILES	TGI (A498 renal) [µM]	TGI (A549 NSCLC) [µM]	TGI (HCC-2998 colon) [µM]	TGI (HL-60(TB) leukemia) [µM]	TGI (OVCAR-3 ovarian)	TGI (RXF 393 renal) [µM]	TGI (SF-268 CNS) [µM]	TGI (SNB-75 CNS) [µM]	TGI (RPMI-8226 leukemia) [µM]	GI50 (A549 NSCLC) [µM]	GI50 (HCC-2998 colon) [µM]	GI50 (NCI/ADR-RES ovarian) [µM]	TGI (NCI/ADR-RES ovarian) [µM]	GI50 (OVCAR-3 ovarian) [µM]	GI50 (RPMI-8226 leukemia) [µM]	GI50 (RXF 393 renal) [µM]	GI50 (SF-268 CNS) [µM]	GI50 (SNB-75 CNS) [µM]	GI50 (HL-60(TB) leukemia) [µM]
Cc1ccccc1-n1c(C)nc(-c2ccccc2)cc1=O	> 100	> 100	> 100	> 100	> 100 µM	> 100	> 100	> 100	–	–	–	–	–	–	–	–	–	–	–
O=C(O)c1ccccc1NC(=O)C1CCCCC1	> 100	> 100	> 100	> 100	> 100 µM	–	> 100	> 100	> 100	–	–	–	–	–	–	–	–	–	–
C[C@H]1C(=O)CC[C@]2(C)CCC(C(C)(C)O)CC12O (some centres undefined)	> 100	> 100	> 100	> 100	> 100 µM	> 100	> 100	> 100	> 100	–	–	–	–	–	–	–	–	–	–
c1ccc2c(c1)C1=NCCN1c1ccccc1-2	8.82	27.1	18.8	5.17	6.82 µM	6.14	11	14.4	6.97	–	–	–	–	–	–	–	–	–	–
O=S(=O)(C/C(=N\O)c1ccccc1)c1ccccc1	> 100	> 100	> 100	> 100	> 100 µM	> 100	> 100	> 100	> 100	–	–	–	–	–	–	–	–	–	–
C=CCCCc1ccc(C(O)CCCCCCCCCCCC)o1 (centres undefined)	–	96.3	55	–	38.8 µM	39.3	35	32	44.7	30.4	22.1	17.4	34.2	19	19.2	19.6	16.1	15.5	–
Nc1n[nH]c(CCc2nc(N)n[nH]2)n1	> 100	> 100	> 100	> 100	> 100 µM	> 100	> 100	> 100	> 100	–	–	–	–	–	–	–	–	–	–
COC1=C2CC(C)CC(OC)C(O)C(C)/C=C(\C)C(OC(N)=O)C(OC)/C=C\C=C(/C)C(=O)NC(=C(/C=N/N3CCCCC3)C1=O)C2=O (centres undefined)	63.8	46.7	18.9	4.32	4.62 µM	14.3	25.1	41	42	–	–	–	–	–	–	–	–	–	–
Cc1cc2c(C)n(Cc3ccc(Cl)cc3Cl)nc2c(C(=O)O)c1C	–	> 100	> 100	> 100	> 100 µM	> 100	> 100	> 100	> 100	–	–	–	–	–	–	–	–	–	–
CC1=CC(=O)N(c2c(C)cccc2Cl)C(C)N1 (centres undefined)	> 100	> 100	> 100	> 100	> 100 µM	> 100	> 100	> 100	–	–	–	–	–	–	–	–	–	–	–
O=C1C=CC(CC(=O)c2ccc3ccccc3c2)O1 (centres undefined)	46.1	> 100	31.1	37.3	41.6 µM	36.6	39.9	91.2	–	–	–	–	–	–	–	–	–	–	–
COC(=O)C1=CC2OC1(C)CCC2=O (centres undefined)	–	> 100	> 100	80.4	> 100 µM	> 100	> 100	> 100	> 100	–	–	–	–	–	–	–	–	–	–
COc1ccc2c(c1OC)C(=O)c1cnccc1C2=O	–	> 100	> 100	> 100	> 100 µM	> 100	–	> 100	> 100	–	–	–	–	–	–	–	–	–	–
CCCCCCC(/C=N/O)C(C)(O)CCC (centres undefined)	> 100	> 100	> 100	> 100	> 100 µM	> 100	> 100	> 100	> 100	–	–	–	–	–	–	–	–	–	–
CO[C@H]1CC(c2ccc[nH]2)=N[C@]12O[C@@H](C)C[C@@H]1CCCCCCCc3ccc([nH]3)[C@H]12	–	7.31	5.54	4.97	5.62 µM	7.53	> 32.2	2.79	2.96	1.04	0.814	1.1	9.9	0.942	0.693	0.807	1.65	0.825	1.24
Cc1cc2c(cc1N)C(C)C1(CCC(=O)N2Cc2ccccc2)OCCO1 (centres undefined)	> 100	> 100	> 100	–	> 100 µM	–	> 100	> 100	> 100	–	–	–	> 100	–	–	–	–	–	–
O=C1CC(c2ccc(Cl)cc2)Oc2ccccc21 (centres undefined)	73	–	55	34.1	–	–	> 100	50.1	9.12	–	–	–	50.6	–	–	–	–	–	–
O=C1c2nc3n(c2C(=O)c2c1nc1n2CCC1)CCC3	29.6	18.1	21	> 36.6	9.74 µM and 7.87 µM	9.59	32	28.9	> 100	5.11	–	–	–	3.42	9.83	–	–	–	–
O=[N+]([O-])c1ccc(Cl)cc1C1SCc2nc3ccccc3n21 (centres undefined)	54	> 100	> 100	> 100	> 100 µM	73.3	> 100	70.7	> 100	–	–	–	–	–	–	–	–	–	–
O=C(NO)c1ccc(O)c(O)c1	> 100	> 100	> 100	56	> 100 µM	> 100	> 100	> 100	> 100	–	–	–	–	–	–	–	–	–	–
O=C(O)C1=C(C(=O)Nc2ccc(NC(=O)C3=C(C(=O)O)C4C=CC3C4)cc2)C2C=CC1C2	> 100	> 100	> 100	> 100	> 100 µM	> 100	> 100	> 100	> 100	–	–	–	–	–	–	–	–	–	–
COC(=O)C1=C(c2ccc3c(c2)OCO3)OC(c2cc(OC)c(OC)c(OC)c2)C1 (centres undefined)	8.04	> 100	> 100	–	4.26 µM	–	> 100	> 100	> 100	–	–	–	–	–	–	–	–	–	–
COC1OC2COC(c3ccccc3)OC2C(O)C1Br (centres undefined)	> 100	> 100	> 100	> 100	> 100 µM	> 100	> 100	–	> 100	–	–	–	–	–	–	–	–	–	–

SMILES	TGI (A498 renal) [µM]	TGI (A549 NSCLC) [µM]	TGI (HCC-2998 colon) [µM]	TGI (HL-60(TB) leukemia) [µM]	TGI (OVCAR-3 ovarian)	TGI (RXF 393 renal) [µM]	TGI (SF-268 CNS) [µM]	TGI (SNB-75 CNS) [µM]	TGI (RPMI-8226 leukemia) [µM]	GI50 (A549 NSCLC) [µM]	GI50 (HCC-2998 colon) [µM]	GI50 (NCI/ADR-RES ovarian) [µM]	TGI (NCI/ADR-RES ovarian) [µM]	GI50 (OVCAR-3 ovarian) [µM]	GI50 (RPMI-8226 leukemia) [µM]	GI50 (RXF 393 renal) [µM]	GI50 (SF-268 CNS) [µM]	GI50 (SNB-75 CNS) [µM]	GI50 (HL-60(TB) leukemia) [µM]
O=C(Nc1ccn(CCI)c(=O)n1)c1ccccc1	> 100	> 100	–	> 100	> 100 µM	> 100	> 100	> 100	> 100	–	–	–	–	–	–	–	–	–	–
COc1cc2c3c(n(CCCN=[N+]=[N-])c(=O)c2cc1OC)-c1ccc(N(C)C)cc1C3=O	–	> 100	> 100	> 100	> 100 µM	> 100	> 100	> 100	> 100	> 100	> 100	> 100	> 100	> 100	> 100	> 100	> 100	55.9	> 100
CCC(Oc1ccc(OC)c2ccccc(=O)c12)C(=O)O (centres undefined)	> 100	> 100	> 100	> 100	> 100 µM	> 100	> 100	> 100	> 100	–	–	–	–	–	–	–	–	–	–
O=C(Nc1ccc(Cl)c(Cl)c1)OCCN1c2ccccc2Sc2ccccc21	–	> 10	> 10	> 10	> 10 µM	–	> 10	> 10	> 10	–	–	–	> 10	–	–	–	–	–	–
CC(C)c1cc(OCC(O)CO)cc(C(C)C)c1 (centres undefined)	> 100	> 100	> 100	> 100	> 100 µM	> 100	> 100	> 100	–	–	–	–	–	–	–	–	–	–	–
Cc1c(Sc2ccccc2)[n+](=O)c2cc(Cl)c(Cl)cc2n1[O-]	–	> 100	> 100	–	60.4 µM	90.1	> 100	> 100	> 100	> 100	34.1	> 100	> 100	23.3	51.7	23.2	> 100	> 100	–
COc1ccc(Nc2c3ccccc3nc3[nH]c4ccccc4c23)cc1	–	> 50	–	> 50	> 50 µM	> 50	> 50	–	33.4	8.49	–	18.9	> 50	19.4	2.33	> 50	17.2	–	4.98
C=CS(=O)(=O)CCN1CC1	–	> 10	> 10	> 10	> 10 µM	–	> 10	> 10	> 10	–	–	–	> 10	–	–	–	–	–	–
O=C1C2Nc3ccccc3SC2C(=O)N1c1ccccc1C(F)(F)F (centres undefined)	–	> 100	35.7	28.1	60.6 µM	23.7	> 100	–	> 100	–	–	–	–	–	–	–	–	–	–
O=C(O)CCSC(=O)Nc1ccc(N=Nc2ccccc2)cc1	> 100	> 100	> 100	> 100	> 100 µM	> 100	> 100	> 100	> 100	–	–	–	–	–	–	–	–	–	–
CC1=C(C(=O)Nc2ccc([N+](=O)[O-])cc2)C(c2ccccc2F)C(C(=O)Nc2ccc([N+](=O)[O-])cc2)=C(C)N1	34.9	> 100	29.1	24.7	39.8 µM	79.2	> 100	83.9	27.5	–	–	–	–	–	–	–	–	–	–
COc1ccc2nc(NC(=O)C(=O)C(C#N)c3ccc(Cl)c(Cl)c3)sc2c1 (centres undefined)	> 100	> 100	–	> 100	> 100 µM	> 100	> 100	> 100	> 100	–	–	–	–	–	–	–	–	–	–
CN(/N=N/c1nc(OCc2ccccc2)c2[nH]cnc2n1)C(=O)Oc1ccc([N+](=O)[O-])cc1	–	31.6	–	> 50	24.4 µM	–	29.5	–	> 50	12	–	–	–	9.49	9.12	–	9.44	–	11.9
Cc1cccc2nc3cccc(C(=O)NCCN(C)C)c3nc12	1.35	15.3	2.27	12	6.45 µM	2.99	9.2	3.04	–	–	–	–	–	–	–	–	–	–	–
O=C(NS(=O)(=O)c1ccccc1)C(Cc1ccccc1)C(Cc1ccccc1)C(=O)NS(=O)(=O)c1ccccc1 (centres undefined)	> 100	> 100	> 100	> 100	> 100 µM	> 100	> 100	> 100	> 100	–	–	–	–	–	–	–	–	–	–
CN1CC(=O)N(C)c2nc[nH]c2C1=O	> 100	> 100	> 100	> 100	> 100 µM	> 100	> 100	> 100	> 100	–	–	–	–	–	–	–	–	–	–
CC12Oc3ccc4ccccc4c3CC1Cc1c(ccc3ccccc13)O2 (centres undefined)	–	> 100	> 100	> 100	–	59.8	> 100	41.3	–	–	–	–	–	–	–	–	–	–	–
O=C1OC(OCC#CCOC2OC(=O)C(Cl)=C2Cl)C(Cl)=C1Cl (centres undefined)	–	38.9	14.3	–	30.7 µM	–	46.8	28.4	11.9	–	–	–	75.3	–	–	–	–	–	–
CC1(C)OC(=O)C=C([O-])O1.CC1(C)OC(=O)C=C([O-])O1.CC[O-].CC[O-].[Ti+4]	–	> 100	> 100	> 100	> 100 µM	–	> 100	> 100	> 100	> 100	> 100	–	–	> 100	> 100	–	> 100	> 100	> 100
O=C(CC1C(=O)Nc2ccccc2S1=O)Nc1ccc(Cl)cc1 (centres undefined)	–	> 100	> 100	> 100	> 100 µM	–	> 100	> 100	> 100	–	–	–	–	–	–	–	–	–	–
O=C1OC(CN2CCOCC2)CN1/N=C/c1ccc([N+](=O)[O-])o1 (centres undefined)	–	> 100	–	> 100	67.4 µM	–	> 100	> 100	> 100	–	–	–	> 100	–	–	–	–	–	–
C=C1[C@@H]([C@@]2(C)C=CC(=O)C(C)(C)[C@@H]2CC(=O)OC)CC[C@@]2(C)C(c3ccoc3)OC(=O)[C@H]3O[C@]132 (some centres undefined)	> 100	> 100	> 100	> 100	> 100 µM	–	> 100	> 100	–	–	–	–	> 100	–	–	–	–	–	–

Source: PubChem BioAssay (NCI)
